Measured values published in PMC4116459 (Molecular microbiology, 2014).

Columns and labels:
[1] = target: BcsE (Escherichia coli, UniProt P37657); test: equilibrium dialysis with purified MBP-BcsE; assay type: binding
[2] = target: T1, YcgR (Escherichia coli, UniProt P76010); test: […]-c-di-GMP DRaCALA with cell lysates, competed by unlabeled c-di-GMP; assay type: cell-based
T1 sequence (P76010 1-244): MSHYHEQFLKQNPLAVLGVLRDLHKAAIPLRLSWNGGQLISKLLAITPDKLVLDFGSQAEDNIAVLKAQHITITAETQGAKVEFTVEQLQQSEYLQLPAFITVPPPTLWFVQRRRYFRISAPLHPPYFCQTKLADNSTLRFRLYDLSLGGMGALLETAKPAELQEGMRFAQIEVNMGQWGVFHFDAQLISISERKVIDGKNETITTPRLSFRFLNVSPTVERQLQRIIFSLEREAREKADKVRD

Sequence of BcsE (P37657 whole entry): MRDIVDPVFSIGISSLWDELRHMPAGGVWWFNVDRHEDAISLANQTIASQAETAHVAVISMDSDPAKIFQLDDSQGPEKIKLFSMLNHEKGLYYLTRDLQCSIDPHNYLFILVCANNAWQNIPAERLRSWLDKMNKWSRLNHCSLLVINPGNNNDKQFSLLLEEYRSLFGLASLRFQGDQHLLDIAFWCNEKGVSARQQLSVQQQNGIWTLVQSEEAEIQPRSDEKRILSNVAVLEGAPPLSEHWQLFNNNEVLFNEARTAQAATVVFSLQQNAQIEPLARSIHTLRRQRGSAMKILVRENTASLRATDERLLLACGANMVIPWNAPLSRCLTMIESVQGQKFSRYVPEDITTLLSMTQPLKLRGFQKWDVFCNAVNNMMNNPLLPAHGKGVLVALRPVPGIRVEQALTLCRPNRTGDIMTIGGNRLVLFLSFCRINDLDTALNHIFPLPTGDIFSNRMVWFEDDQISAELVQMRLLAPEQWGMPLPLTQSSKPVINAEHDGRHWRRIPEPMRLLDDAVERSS

## Nc1nc2c(ncn2[C@@H]2O[C@@H]3COP(=O)(O)O[C@H]4[C@@H](O)[C@H](n5cnc6c(=O)[nH]c(N)nc65)O[C@@H]4COP(=O)(O)O[C@H]3[C@H]2O)c(=O)[nH]1 [c-di-GMP]
[1]
  Kd: 2420 nM
[2]
  33P-c-di-GMP DRaCALA with cell lysates, competed by unlabeled c-di-GMP: Only the YcgR and Clp lysates produced positive signals (Fig. 1B).
